# According to patent US9758520B2, “Substituted fused heterocycles as GPR119 modulators for the treatment of diabetes, obesity, dyslipidemia and related disorders” (SANOFI, priority 2014, dated 2017):
# Molecular target: T1, human GPR119 (Homo sapiens, UniProt Q8TDV5)
# T1 construct: expressed in transfected cells
# T1 sequence (Q8TDV5 1-335): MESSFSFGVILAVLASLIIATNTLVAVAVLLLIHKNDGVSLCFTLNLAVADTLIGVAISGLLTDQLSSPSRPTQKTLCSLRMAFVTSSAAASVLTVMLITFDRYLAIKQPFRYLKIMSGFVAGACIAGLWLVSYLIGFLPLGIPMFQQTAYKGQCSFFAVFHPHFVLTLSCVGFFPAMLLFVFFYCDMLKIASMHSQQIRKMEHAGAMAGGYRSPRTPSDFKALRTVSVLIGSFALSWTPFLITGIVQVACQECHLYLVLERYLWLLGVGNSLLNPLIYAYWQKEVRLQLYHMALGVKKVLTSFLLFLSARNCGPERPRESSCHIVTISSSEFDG
# Test: Functional cellular assay measuring GPR119-mediated cAMP release (HTRF) in HEK-293 cells stably expressing recombinant GPR119
# Type: cell-based
# Details: cAMP response, cell line expressing human GPR119 (HEK-293), 30 minutes at room temperature
# Procedure: Functional Cellular Assays Measuring GPR119-Mediated cAMP Release
# Compounds of the invention, which are agonists of GPR119, were characterized by functional assays measuring the cAMP response of HEK-293 cell lines stably expressing recombinant GPR119 from man, mouse or rat, or by using a hamster cell line HIT-T15 expressing GPR119 endogenously. The cAMP content was determined using a kit based on homogenous time-resolved fluorescence (HTRF) from Cisbio Corp. (cat. no. 62AM4PEC). For preparation, cells were split into T175 culture flasks and grown to near confluency in medium (DMEM/10% FCS for HEK-293 cells, and F-12K medium/10% horse serum/2.5% FCS for HIT-T15 cells, respectively). Medium was then removed and cells washed with PBS lacking calcium and magnesium ions, followed by proteinase treatment with accutase (Sigma-Aldrich, cat. no. A6964). Detached cells were washed and resuspended in assay buffer (1×HBSS; 20 mM HEPES, 0.1% BSA, 2 mM IBMX) and cellular density determined. They were then diluted to 400000 cells/mL and 25 μL-aliquots dispensed to the wells of 96-well plates. For measurement, 25 μL of test compound in assay buffer was added and incubated for 30 minutes at room temperature. After addition of HTRF reagents diluted in lysis buffer, the plates were incubated for 1 hour, followed by measuring the fluorescence ratio at 665 vs. 620 nm. Potency of the agonists was quantified by determining the concentrations that caused 50% of the maximal response/activation (EC50). See Table 3 for exemplary data obtained using the cell line expressing human GPR119.
row,Compound,EC50 [nM]
1,"COC(=O)Cn1nc2c(F)cc(N3CC[C@@H](Oc4ccc(OCC5CC5)nc4)C3=O)cn2c1=O [Example 1-28, methyl 2-[6-[(3R)-3-[[6-(cyclopropylmethoxy)-3-pyridyl]oxy]-2-oxo-pyrrolidin-1-yl]-8-fluoro-3-oxo-[1,2,4]triazolo[4,3-a]pyridin-2-yl]acetate]",70
2,"CN(C)C(=O)Cn1nc2ccc(N3CC[C@@H](Oc4ccc(OCC(F)(F)F)nc4)C3=O)cn2c1=O [Example 1-30, N,N-dimethyl-2-[3-oxo-6-[(3R)-2-oxo-3-[[6-(2,2,2-trifluoroethoxy)-3-pyridyl]oxy]pyrrolidin-1-yl]-[1,2,4]triazolo[4,3-a]pyridin-2-yl]acetamide]",203
3,"CS(=O)(=O)Cn1nc2ccc(N3CC[C@@H](Oc4ccc(Oc5ccc(F)cc5)nc4)C3=O)cn2c1=O [Example 1-31, 6-[(3R)-3-[[6-(4-fluorophenoxy)-3-pyridyl]oxy]-2-oxo-pyrrolidin-1-yl]-2-(methylsulfonylmethyl)-[1,2,4]triazolo[4,3-a]pyridin-3-one]",365
4,"CS(=O)(=O)Cn1nc2ccc(N3CC[C@@H](Oc4ccc(C(=O)C5CC5)cc4)C3=O)cn2c1=O [Example 1-32, 6-[(3R)-3-[4-(cyclopropanecarbonyl)phenoxy]-2-oxo-pyrrolidin-1-yl]-2-(methylsulfonylmethyl)-[1,2,4]triazolo[4,3-a]pyridin-3-one]",196
5,"CS(=O)(=O)Cn1nc2ccc(N3CC[C@@H](Oc4ccc(OCC(F)(F)F)nc4)C3=O)cn2c1=O [Example 1-33, 2-(methylsulfonylmethyl)-6-[(3R)-2-oxo-3-[[6-(2,2,2-trifluoroethoxy)-3-pyridyl]oxy]pyrrolidin-1-yl]-[1,2,4]triazolo[4,3-a]pyridin-3-one]",113
6,"CN(C)C(=O)Cn1cc2cc(N3CC[C@@H](Oc4ccc(OCC(F)(F)F)nc4)C3=O)ccc2n1 [Example 1-34, N,N-dimethyl-2-[5-[(3R)-2-oxo-3-[[6-(2,2,2-trifluoroethoxy)-3-pyridyl]oxy]pyrrolidin-1-yl]indazol-2-yl]acetamide]",103

# Next, values leading:
row,EC50 [nM],Compound
1,126,"CN(C)C(=O)Cn1nc2c(F)cc(N3CC[C@@H](Oc4ccc(OCC5CC5)nc4)C3=O)cn2c1=O [Example 2-01, 2-[6-[(3R)-3-[[6-(cyclopropylmethoxy)-3-pyridyl]oxy]-2-oxo-pyrrolidin-1-yl]-8-fluoro-3-oxo-[1,2,4]triazolo[4,3-a]pyridin-2-yl]-N,N-dimethyl-acetamide]"
2,123,"O=C(Cn1nc2c(F)cc(N3CC[C@@H](Oc4ccc(OCC5CC5)nc4)C3=O)cn2c1=O)NC1CC1 [Example 2-02, N-cyclopropyl-2-[6-[(3R)-3-[[6-(cyclopropylmethoxy)-3-pyridyl]oxy]-2-oxo-pyrrolidin-1-yl]-8-fluoro-3-oxo-[1,2,4]triazolo[4,3-a]pyridin-2-yl]acetamide]"
3,127,"CN(C)C(=O)Cn1nc2ccc(N3CC[C@@H](Oc4ccc(OCC5CC5)nc4)C3=O)cc2n1 [Example 2-03, 2-[5-[(3R)-3-[[6-(cyclopropylmethoxy)-3-pyridyl]oxy]-2-oxo-pyrrolidin-1-yl]benzotriazol-2-yl]-N,N-dimethyl-acetamide]"
4,343,"O=C(Cn1nc2ccc(N3CC[C@@H](Oc4ccc(OCC5CC5)nc4)C3=O)cc2n1)NCCO [Example 2-04, 2-[5-[(3R)-3-[[6-(cyclopropylmethoxy)-3-pyridyl]oxy]-2-oxo-pyrrolidin-1-yl]benzotriazol-2-yl]-N-(2-hydroxyethyl)acetamide]"
5,196,"NC(=O)Cn1nc2ccc(N3CC[C@@H](Oc4ccc(OCC5CC5)nc4)C3=O)cc2n1 [Example 2-05, 2-[5-[(3R)-3-[[6-(cyclopropylmethoxy)-3-pyridyl]oxy]-2-oxo-pyrrolidin-1-yl]benzotriazol-2-yl]acetamide]"
